Assays:
[1] = Solubility of vancomycin loaded into the polymer solution; type: physicochemical; conditions: loaded at 50 mg/mL
Method: To prepare a solution for antibiotic delivery, the materials can be sterilized (such as by ethylene oxide gas sterilization) and then dissolved in 150 mM phosphate buffered saline (pH 7.4). After dissolution of the polymer, drug powder (finely ground) is added directly to the polymer solution and vortex mixed to distribute the drug evenly throughout the solution. The solutions can be stored in a freezer until use and thawed at the time of use. The solution then can be injected, brushed, poured, sprayed, or otherwise administered as a liquid at the desired site. The solution can also be allowed to warm to above its initial LCST and then implanted as a soft hydrogel at the desired site. Examples of desired sites for delivery of this material might include the surface of a joint prosthesis, the intramedullary canal before implantation of a prosthesis, an infected area, or any location deemed to have a risk of future infection. An example formulation might be a 30 wt % polymer solution with approximately 50 mg vancomycin hydrochloride loaded per mL of polymer solution.
FIG. 7 graphically illustrates a fraction of loaded vancomycin released from Applicants' injectable and degradable terpolymer I based gels comprising poly(NIPAAm-co-DBLA-co-JAAm) gels loaded with either 50 mg or 5 mg per gel.

[2] = Swelling and degradation of gels in excess PBS (pH 7.4) at 37° C.; type: physicochemical
Excerpt: The control copolymer comprises […] of JAAm. […] These gels dissolve in approximately 20 weeks.
Gels flow when inverted after 7-10 days and dissolve completely within 2-3 weeks.

Compound | solubility in polymer solution [1] | Degradation time (37° C., pH 7.4) [2]
CN[C@H](CC(C)C)C(=O)N[C@H]1C(=O)N[C@@H](CC(N)=O)C(=O)N[C@H]2C(=O)N[C@H]3C(=O)N[C@H](C(=O)N[C@H](C(=O)O)c4cc(O)cc(O)c4-c4cc3ccc4O)[C@H](O)c3ccc(c(Cl)c3)Oc3cc2cc(c3O[C@@H]2O[C@H](CO)[C@@H](O)[C@H](O)[C@H]2O[C@H]2C[C@](C)(N)[C@H](O)[C@H](C)O2)Oc2ccc(cc2Cl)[C@H]1O [vancomycin] | Some vancomycin is insoluble | 
poly(NIPAAm-co-DBLA) |  | ~20 weeks

Reference: patent US10780145B2, “In situ forming hydrogel and method using same” (Arizona Board of Regents on behalf of Arizona State …, priority 2011, dated 2020)
